From US5500429A, “Calcium uptake inhibitors” (Merrell Pharmaceuticals Inc., priority 1993, dated 1996)
Read-outs that look alike come from different tables or passages of the source.

Assays:
[1] = system: Rat PMNL (intracellular calcium); experiment: Measurement of Intracellular Calcium (Fura-2) in fMLP-stimulated rat PMNL; type: cell-based; settings: for suppression of the second wave of intracellular calcium changes: fMLP-stimulated PMNL, preincubation with compound, FIG. 1
Experimental: (§1) Rat PMNL were obtained from exudates resulting from peritoneal injection of 6 mL of 8% sodium caseinate. Eighteen hours after injection rats were killed by carbon dioxide inhalation and the peritoneal cavity lavaged with Hank's balanced salt solution (HBSS). After concentration of the PMNL by centrifugation, contaminating erythrocytes were removed by hypotonic lysis. The PMNL were then washed twice by centrifugation (400×g for 10 minutes) and resuspended in HBSS. Cell viability was greater than 90% by Trypan Blue exclusion and greater than 90% of the cells were PMNL by Wright-Giemsa stain.
Intracellular calcium levels were obtained using Fura-2 as fluorescent indicator (Grynkiewicz et al., 1985). Fura-2 was loaded into PMNL as the acetoxymethyl ester (Fura-2/AM) using the method of Korchak et al., (1988). Specifically, 1×10^8 PMNL/mL were incubated in HBSS with 10 μM Fura-2/AM for 10 minutes at 37° C. The cells suspension was then diluted ten fold with HBSS and further incubated for another 20 minutes. The cells were then centrifuged (400×g for 8 minutes at 25° C.) and the PMNL (1×10^7 cells/mL) resuspended in HBSS containing 1% bovine serum albumin. Cells were stored at room temperature and used within 3 hours.
Intracellular calcium level determinations were made using a dual wavelength spectrofluorometer (Photon Technology International, New Brunswick, N.J.). Two mL of PMNL suspension (1×10^7 cells/mL) were stirred magnetically at 37° C. Cells were preincubated with the compounds for 15 minutes at 37° C. prior to activation. Where compounds were dissolved in DMSO and added directly, the DMSO never exceeded 0.3% in the final cell suspension. Total change in volume with addition of compounds or vehicle and stimuli never exceeded 3%. Intracellular calcium concentrations were calibrated by setting a maximum calcium level in the cells with the addition of 7 uM ionomycin to PMNL in HBSS containing 1% BSA. This was followed by treatment with 20 mM EGTA for 1 hour to obtain a minimum calcium level. […]

Rat PMNL = experiment: Myeloperoxidase (MPO) Release from rat PMNL; type: cell-based; settings: for inhibition at 1 µM / inhibition at 3 µM / inhibition at 10 µM / inhibition at 30 µM / inhibition at 100 µM / inhibition at 300 µM: Rattus norvegicus, PMNL
Experimental: as §1
MPO release was determined using the MPO catalyzed oxidation of o-dianisidine. The experiments were carried out in 96-well microtiter plates (Webster and Henson, 1978). In each well, 50 microliter (μ1) aliquots of a PMNL suspension (2×10^7 cell/mL in HBSS) were incubated with 50 μof HBSS containing vehicle (0.3% DMSO) or inhibitor for 30 minutes at 37° C. The final DMSO concentration never exceeded 0.3% and was constant throughout each experiment. To activate the PMNL, 50 μl of one of the following were added for 30 minutes at 37° C.: N-formyl-Met-Leu-Phe (fMLP; 0.1 μM); phorbol myristate acetate (PMA, 200 ng/mL); or rat serum opsonized zymosan (OZ; 2.6 mg/mL, prepared by the method of Ward et al., 1983). The stimuli were added in 50 μl HBSS which also contained the compounds or vehicle, as appropriate, to avoid changing the inhibitor concentration. Cell activation was terminated by centrifugation of the plates at 600×g for 5 minutes at 22° C. Aliquots (100 μl) of supernatant were removed from each well and transferred to a 96-well flatbottomed microtiter plate for the MPO assay. To each aliquot of supernatant was added 100 μl of a freshly prepared solution containing 50 μl of 0.2M sodium phosphate buffer (pH 6.2), 25 μl of 3.9 mM O-dianisidine and 25 μl of 0.015M hydrogen peroxide. Blanks were obtained using the same solution without hydrogen peroxide. The plates were mixed and then incubated at room temperature in the dark for about 15 minutes. Absorbances of the samples were measured at 450 nm.
Rat PMNL were isolated in HBSS containing Ca^+2. As summarized in the figure below, fMLP stimulation of rat PMNL in the presence of cytochalasin B or with opsonized zymosan or with ionomycin results in the release of myeloperoxidase (fMLP/MPO, OZ/MPO, and ION/MPO; columns 2, 4, and 6 respectively).

[2] = fMLP + cytochalasin B, read-out: fMLP/MPO inhibition
[3] = ionomycin, read-out: ION/MPO inhibition
[4] = opsonized zymosan, read-out: OZ/MPO inhibition
[5] = fMLP + cytochalasin B, opsonized zymosan, ionomycin

| Structure (SMILES) | suppression of the second wave of intracellular calcium changes [1] | inhibition at 1 µM (Rat PMNL; [2]) [%] | inhibition at 3 µM (Rat PMNL; [2]) [%] | inhibition at 10 µM (Rat PMNL; [2]) [%] | inhibition at 30 µM (Rat PMNL; [2]) [%] | inhibition at 100 µM (Rat PMNL; [2]) [%] | inhibition at 1 µM (Rat PMNL; [3]) [%] | inhibition at 3 µM (Rat PMNL; [3]) [%] | inhibition at 10 µM (Rat PMNL; [3]) [%] | inhibition at 30 µM (Rat PMNL; [3]) [%] | inhibition at 100 µM (Rat PMNL; [3]) [%] | inhibition at 1 µM (Rat PMNL; [4]) [%] | inhibition at 3 µM (Rat PMNL; [4]) [%] | inhibition at 10 µM (Rat PMNL; [4]) [%] | inhibition at 30 µM (Rat PMNL; [4]) [%] | inhibition at 100 µM (Rat PMNL; [4]) [%] | inhibition of myeloperoxidase release (Rat PMNL; [5]) | other results |
| --- | --- | --- | --- | --- | --- | --- | --- | --- | --- | --- | --- | --- | --- | --- | --- | --- | --- | --- |
| CN(C)c1ccc(C(=O)C=Cc2ccncc2)cc1 [MDL 101,240, 1-(4-dimethylaminophenyl)-3-(4-pyridinyl)-2-propene-1-one] | selective concentration-dependent suppression of the second wave of intracellular calcium changes | 13.1 | 11.7 | 31.2 | 67.3 | 112 | -8 | -5 | -2 | 12 | 35.6 | 2.5 | 7.3 | 28.1 | 82.5 | 142 | dose dependent inhibition of myeloperoxidase release | relative inhibition of the second phase (calcium uptake) ([1]; MDL 101,240 vs MDL 29,355, fMLP stimulus): stronger inhibition for MDL 101,240 than for MDL 29,355 |
| O=C(C=Cc1ccncc1)c1ccccc1 [MDL 29,355, 1-phenyl-3-(4-pyridinyl)-2-propene-1-one] | selective concentration-dependent suppression of the second wave of intracellular calcium changes | 0.1 | 5 | 16.5 | 53.3 | 101 | -4.5 | -1.7 | 14.8 | 24.4 | 89.1 | -1.7 | 3.4 | 3.6 | 3.2 | 7.1 | dose dependent inhibition of myeloperoxidase release | inhibition at 300 µM (Rat PMNL; [2]): 104%; inhibition at 300 µM (Rat PMNL; [3]): 99.6%; inhibition at 300 µM (Rat PMNL; [4]): 42.4% |
